The values below come from article PMC7226045, “Ensartinib (X-396) Effectively Modulates Pharmacokinetic Resistance Mediated by ABCB1 and ABCG2 Drug Efflux Transporters and CYP3A4 Biotransformation Enzyme” (Cancers, 2020).

A word on the IC50: it is the concentration that gives 50% inhibition.

One series deals with T1, CYP2D6 (Homo sapiens, UniProt P10635).
T1 construct: purchased Thermo Fisher Scientific; host or cells: insect microsomal fractions
In words: Vivid CYP screening kit, recombinant CYP2D6. It is filed as biochemical. As to conditions: recombinant enzyme. The method, then: CYP inhibitory assay was performed as described previously. Experiments were performed with commercial Vivid CYP screening kits containing insect microsomal fractions enriched with a specific human CYP isoform, human CYP reductase, and in some cases, human cytochrome b5. The potential inhibitory activity of ensartinib toward CYP1A2, CYP2B6, CYP2C8, CYP2C9, CYP2C19, CYP2D6, CYP3A4, and CYP3A5 (i.e., all CYP isoforms that drug regulatory authorities recommend for testing of inhibition by new molecular entities) was then examined. Experiments were performed using a kinetic mode in black 96-well plates according to the manufacturer´s instructions. Briefly, 5-point serial dilutions of ensartinib or the model inhibitor recommended by the manufacturer in buffer were transferred into the wells, then a master mix consisting of a CYP isoenzyme with an NADPH regeneration system in buffer was added. After a 10 min pre-incubation, the reaction was initiated by adding a mixture of NADP^+ and the appropriate Vivid substrate, after which fluorescence was measured at 1 min intervals for 60 min using an Infinite M200 Pro microplate reader (Tecan, Männedorf, Switzerland). The enzyme concentration and incubation interval used for data evaluation (15 min) placed the systems within the linear regions of the appropriate reaction velocity curves. […]

The nature of series [1]: XTT proliferation / drug combination assay, HL60-ABCG2. It is filed as cell-based, human. As to conditions: human, HL60-ABCG2 cells, 48 h, XTT, read-out: IC50, sensitivity to ensartinib. The procedure: (§1) The MTT method is not readily adapted for use with suspension cell cultures, therefore the XTT assay was used to assess the proliferation of HL60 cells. Briefly, HL60-par, HL60-ABCB1, HL60-ABCG2, and HL60-ABCC1 cells were seeded at 2 × 10^4 cells/well in 96-well culture plates. Immediately after seeding, dilutions of the tested drugs or drug combinations were added to the cells. The plates were then incubated under standard conditions (37 °C, 5% CO2) for 48 h, after which XTT solution in PBS (1 mg/mL) and phenazine methosulfate (7.50 µg/mL) were added to the cells and the plates were incubated for another 5 h. Finally, the cells’ absorbance was measured at 450 nm using a microplate reader (Infinite M200, Tecan, Salzburg, Austria). This method was used to assess the effect of ABC transporters on sensitivity to ensartinib and in drug combination assays.
(§2) Experiments focusing on the modulation of ABC transporter-mediated resistance were performed as described previously. The parent MDCKII and HL60 cells and their ABCB1-, ABCG2-, and ABCC1-overexpressing counterparts were seeded at the densities specified above onto 96-well culture plates and cultured for 24 h. The medium was subsequently replaced with serial dilutions of ensartinib alone or with various concentrations of a model MDR-susceptible cytostatic agent (daunorubicin or mitoxantrone) with or without 10 µM ensartinib. After 48 h incubation, the cells’ viability was determined as described above. In addition to performing IC50-shift analyses, the viability measurements were converted to FA (fraction of cells affected) values and the effects of drug combinations were quantified using the Chou-Talalay combination index (CI) method as implemented in CompuSyn 3.0.1 (ComboSyn Inc., Paramus, NJ, USA). The effects of concomitantly administered drugs were classified as synergistic (CI < 0.9), additive (0.9 < CI < 1.1), or antagonistic (CI > 1.1) based on the computed CI values.
For orientation: Formazan colour is commonly taken as a measure of viable cells.

A further series concerns HL60-ABCG2 cells. The series is described as above. Format: cell-based, human. The method, then:
as §1, §2

Series [2] is described as follows: MDCKII monolayer transport assay, MDCKII-par. It is filed as in vitro ADME, canine. As to conditions: dog, MDCK, 1 µM ensartinib, read-out: transport ratio (r), BA/AB. The method, then:
Transport assays were performed on microporous polycarbonate membrane filters (3 µm pore size, 24 mm diameter, Transwell 3414; Costar, Corning, NY, USA) using MDCKII parental as well as ABCB1-, ABCG2-, and ABCC1-overexpressing MDCKII cells. The cells were seeded at a density of 1.5 × 10^6 cells per insert and cultured to full confluence for 7 days with media exchanges on the second and fourth days. Before the start of the transport experiments, inserts were washed with 1 × PBS on both the apical and basal sides. The cells were then preincubated in Opti-MEM with or without model inhibitors (1 µM LY335979, 1 µM Ko143, or 25 µM MK-571). […] Ensartinib levels in samples were measured by UHPLC-MS/MS (see below). […]
Samples from the monolayer transport assays (10 µL) were mixed with 100 µL of acetonitrile and 100 µL of methanol, vortexed for 15 min, and centrifuged at 14,500 rpm for 3 min. […] The MS source parameters were set to the following: drying gas, 320 °C, flow rate 10 l/min; sheath gas, 400 °C at 12 l/min; nebulizer pressure 25 psi; capillary voltage 4000 V; nozzle voltage 0 V. Transitions of [M+H]^+ ions were detected using a dwell time of 150 ms, a cell acceleration of 4 V, and fragmentor voltages of 137 V for 547→357, 257 and 120 transitions (corresponding to collision energies of 16, 32, and 56 V).

T1 sequence (P10635 whole entry): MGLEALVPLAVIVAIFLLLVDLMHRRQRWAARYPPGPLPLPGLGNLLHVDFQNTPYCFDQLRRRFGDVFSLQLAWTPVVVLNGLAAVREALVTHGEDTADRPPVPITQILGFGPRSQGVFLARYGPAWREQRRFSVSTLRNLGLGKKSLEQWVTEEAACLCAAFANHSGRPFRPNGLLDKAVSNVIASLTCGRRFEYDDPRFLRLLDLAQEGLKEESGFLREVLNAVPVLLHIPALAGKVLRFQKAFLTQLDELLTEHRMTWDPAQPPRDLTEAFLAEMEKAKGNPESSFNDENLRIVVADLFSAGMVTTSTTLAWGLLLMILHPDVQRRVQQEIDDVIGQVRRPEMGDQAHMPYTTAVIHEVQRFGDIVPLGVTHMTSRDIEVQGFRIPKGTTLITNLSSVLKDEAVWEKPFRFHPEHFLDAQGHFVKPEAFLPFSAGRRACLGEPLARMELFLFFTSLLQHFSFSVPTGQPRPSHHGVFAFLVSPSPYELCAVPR

`C[C@@H]1CN(C(=O)c2ccc(NC(=O)c3cc(O[C@H](C)c4c(Cl)ccc(F)c4Cl)c(N)nn3)cc2)C[C@H](C)N1` [ensartinib, Ensartinib]: the “inhibitory effect on CYP2D6 (in words)” value on CYP2D6 is on record as “no appreciable inhibitory effect”. Moreover, on CYP2D6 (15 min incubation, absolute IC50, read-out: CYP2D6 inhibition IC50), the IC50 was more than 50 µM. Moreover, the IC50 at 48 h in series [1] stood at 24.3 µM. Also, the “combination effect (Chou-Talalay combination index)” value in the series on HL60-ABCG2 cells (10 µM ensartinib with mitoxantrone) was “synergistic (synergistic (CI < 0.9))”. The “RR (reversal ratio)” value with HL60-ABCG2 cells (mitoxantrone, IC50 single drug / IC50 combined with 10 µM ensartinib) came out at 18.6. Further, in series [2], the efflux ratio at 4 h, 1 µM was 1.01.
